Results from US20090253709A1 (NATIONAL DEFENSE MEDICAL CENTER, priority 2008, published 2009).

Tested on: hTERT expression
Assay: SEAP assay in hTERT-BJ1-PTERT(3.4)-SEAP cells
Format: cell-based
Details: Homo sapiens, read-out: SEAP (Inhibition μM ± SD)
Experimental: A total of 2×10^3 hTERT-BJ1-PTERT(3.4)-SEAP cells were seeded in the 96-well cell culture plate, and incubated with DMEM (GIBCO®)/glucose mixture and Medium 199 (GIBCO®)/10% FBS/1 mM sodium pyruvate (GIBCO®)/4 mM L-glutamine (GIBCO®) mixture at a ratio of 4:1 at 37° C. for 24 hours. When the cells were attached in the bottom of the well, the seriously-diluted compounds with different concentrations ([…]) were treated with the cells for 48 hours, and the PTERT(3.4)-SEAP cells without drug treatment were being the control. After 48 hours of drug treatment, the cultured medium were collected for performing the analysis of SEAP activity. The cells were washed with 1×PBS once immediately, and the MTT assay was performed to compare the compounds with the relative toxicity or the influence to the proliferation and activity.
The cellular medium after the cellular incubation was transferred into the eppondorf tube, and the activity of endogeneous alkaline phosphatase was inactivated at 65° C. for 10 minutes. After centrification, the mixture was obtained by mixing 50 μl of the supernatant with the equal volume of the SEAP buffer. The mixture and the substrate (120 mM of p-nitrophenylphosphate) were preheated at 37° C. for 10 minutes respectively, and the mixture and the substrate were mixed at a ratio of 1:10 and reacted at 37° C. The absorbance of visible light at 405 nm was determined at the appropriate time intervals, and the enzymatic activity of SEAP was represented by the speed of the increasing absorbance at 405 nm.

SMILES | activity at 1 µM | activity at 10 µM | activity at 100 µM
CCNCC(=O)Nc1ccc2c(c1)C(=O)c1cc(NC(=O)CNCC)ccc1C2=O [Compound 10, 2,7-Bis[2-(ethylamino)acetamido]anthraquinone] | 90 ± 5% | 41 ± 4% | 17 ± 21%
CC(C)NCC(=O)Nc1ccc2c(c1)C(=O)c1cc(NC(=O)CNC(C)C)ccc1C2=O [Compound 13, 2,7-Bis[2-(isopropylamino)acetamido]anthraquinone] | 79 ± 14% | 55 ± 19% | 45 ± 11%
CN(C)CCC(=O)Nc1ccc2c(c1)C(=O)c1cc(NC(=O)CCN(C)C)ccc1C2=O [Compound 20, 2,7-Bis[3-(dimethylamino)propionamido]anthraquinone] | 86 ± 2% | 61 ± 2% | 38%
CCNCCC(=O)Nc1ccc2c(c1)C(=O)c1cc(NC(=O)CCNCC)ccc1C2=O [Compound 22, 2,7-Bis[3-(ethylamino)propionamido]anthraquinone] | 211 ± 38% | 217 ± 133% | 97 ± 87%
CC(=O)Nc1ccc2c(c1)C(=O)c1cc(NC(C)=O)ccc1C2=O [Compound 26, 2,7-Bis(acetamido)anthraquinone] | 123 ± 5% | 117 ± 3% | 117 ± 5%

Same assay, conditions: Homo sapiens; BJ1; compound concentration 1 μM; read-out: SEAP (Inhibition μM ± SD)

SMILES | activity at 1 µM
CN1CCN(CC(=O)Nc2ccc3c(c2)C(=O)c2cc(NC(=O)CN4CCN(C)CC4)ccc2C3=O)CC1 [Compound 11, 2,7-Bis[2-(N-methylpiperazino)acetamido]anthraquinone] | 61 ± 21%

Same assay, conditions: Homo sapiens; BJ1; compound concentration 10 μM; read-out: SEAP (Inhibition μM ± SD)

SMILES | activity at 10 µM
CN1CCN(CC(=O)Nc2ccc3c(c2)C(=O)c2cc(NC(=O)CN4CCN(C)CC4)ccc2C3=O)CC1 [Compound 11, 2,7-Bis[2-(N-methylpiperazino)acetamido]anthraquinone] | 68 ± 21%

Same assay, conditions: Homo sapiens; BJ1; compound concentration 100 μM; read-out: SEAP (Inhibition μM ± SD)

SMILES | activity at 100 µM
CN1CCN(CC(=O)Nc2ccc3c(c2)C(=O)c2cc(NC(=O)CN4CCN(C)CC4)ccc2C3=O)CC1 [Compound 11, 2,7-Bis[2-(N-methylpiperazino)acetamido]anthraquinone] | 97 ± 30%

Tested on: not given
Assay: not given
Details: not given

SMILES | melting point
CCNCC(=O)Nc1ccc2c(c1)C(=O)c1cc(NC(=O)CNCC)ccc1C2=O [Compound 10, 2,7-Bis[2-(ethylamino)acetamido]anthraquinone] | 145 °C
CN1CCN(CC(=O)Nc2ccc3c(c2)C(=O)c2cc(NC(=O)CN4CCN(C)CC4)ccc2C3=O)CC1 [Compound 11, 2,7-Bis[2-(N-methylpiperazino)acetamido]anthraquinone] | 173 °C
CC(C)NCC(=O)Nc1ccc2c(c1)C(=O)c1cc(NC(=O)CNC(C)C)ccc1C2=O [Compound 13, 2,7-Bis[2-(isopropylamino)acetamido]anthraquinone] | 158 °C
CN(C)CCC(=O)Nc1ccc2c(c1)C(=O)c1cc(NC(=O)CCN(C)C)ccc1C2=O [Compound 20, 2,7-Bis[3-(dimethylamino)propionamido]anthraquinone] | 196 °C
CCNCCC(=O)Nc1ccc2c(c1)C(=O)c1cc(NC(=O)CCNCC)ccc1C2=O [Compound 22, 2,7-Bis[3-(ethylamino)propionamido]anthraquinone] | 181 °C
CC(=O)Nc1ccc2c(c1)C(=O)c1cc(NC(C)=O)ccc1C2=O [Compound 26, 2,7-Bis(acetamido)anthraquinone] | 340 °C

Tested on: not listed separately
Assay: MTT assay in BJ1 cells
Format: cell-based
Details: human, hTERT-BJ1-PTERT(3.4)-SEAP cells; BJ1; compound concentration 1 μM; read-out: MTT (Inhibition μM ± SD)
How it was run: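 After 48 h drug treatment, cells in DMEM/Medium 199 (4:1) with 10% FBS were given MTT (5 mg/ml stock) in serum-free medium for 4 h at 37 °C, lysed overnight in 20% SDS/50% DMF, and absorbance read at 570 nm.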

SMILES | viability at 48 h, 1 µM
CCNCC(=O)Nc1ccc2c(c1)C(=O)c1cc(NC(=O)CNCC)ccc1C2=O [Compound 10, 2,7-Bis[2-(ethylamino)acetamido]anthraquinone] | 72 ± 2%
CN1CCN(CC(=O)Nc2ccc3c(c2)C(=O)c2cc(NC(=O)CN4CCN(C)CC4)ccc2C3=O)CC1 [Compound 11, 2,7-Bis[2-(N-methylpiperazino)acetamido]anthraquinone] | 86 ± 1%
CC(C)NCC(=O)Nc1ccc2c(c1)C(=O)c1cc(NC(=O)CNC(C)C)ccc1C2=O [Compound 13, 2,7-Bis[2-(isopropylamino)acetamido]anthraquinone] | 89 ± 1%
CN(C)CCC(=O)Nc1ccc2c(c1)C(=O)c1cc(NC(=O)CCN(C)C)ccc1C2=O [Compound 20, 2,7-Bis[3-(dimethylamino)propionamido]anthraquinone] | 94 ± 7%
CCNCCC(=O)Nc1ccc2c(c1)C(=O)c1cc(NC(=O)CCNCC)ccc1C2=O [Compound 22, 2,7-Bis[3-(ethylamino)propionamido]anthraquinone] | 82 ± 2%
CC(=O)Nc1ccc2c(c1)C(=O)c1cc(NC(C)=O)ccc1C2=O [Compound 26, 2,7-Bis(acetamido)anthraquinone] | 106 ± 1%

Same assay, conditions: human, hTERT-BJ1-PTERT(3.4)-SEAP cells; BJ1; compound concentration 10 μM; read-out: MTT (Inhibition μM ± SD)

SMILES | viability at 48 h, 10 µM
CCNCC(=O)Nc1ccc2c(c1)C(=O)c1cc(NC(=O)CNCC)ccc1C2=O [Compound 10, 2,7-Bis[2-(ethylamino)acetamido]anthraquinone] | 56 ± 2%
CN1CCN(CC(=O)Nc2ccc3c(c2)C(=O)c2cc(NC(=O)CN4CCN(C)CC4)ccc2C3=O)CC1 [Compound 11, 2,7-Bis[2-(N-methylpiperazino)acetamido]anthraquinone] | 69 ± 1%
CC(C)NCC(=O)Nc1ccc2c(c1)C(=O)c1cc(NC(=O)CNC(C)C)ccc1C2=O [Compound 13, 2,7-Bis[2-(isopropylamino)acetamido]anthraquinone] | 41 ± 2%
CN(C)CCC(=O)Nc1ccc2c(c1)C(=O)c1cc(NC(=O)CCN(C)C)ccc1C2=O [Compound 20, 2,7-Bis[3-(dimethylamino)propionamido]anthraquinone] | 30 ± 14%
CCNCCC(=O)Nc1ccc2c(c1)C(=O)c1cc(NC(=O)CCNCC)ccc1C2=O [Compound 22, 2,7-Bis[3-(ethylamino)propionamido]anthraquinone] | 73 ± 3%
CC(=O)Nc1ccc2c(c1)C(=O)c1cc(NC(C)=O)ccc1C2=O [Compound 26, 2,7-Bis(acetamido)anthraquinone] | 91 ± 2%

Same assay, conditions: human, hTERT-BJ1-PTERT(3.4)-SEAP cells; BJ1; compound concentration 100 μM; read-out: MTT (Inhibition μM ± SD)

SMILES | viability at 48 h, 100 µM
CCNCC(=O)Nc1ccc2c(c1)C(=O)c1cc(NC(=O)CNCC)ccc1C2=O [Compound 10, 2,7-Bis[2-(ethylamino)acetamido]anthraquinone] | 37 ± 1%
CN1CCN(CC(=O)Nc2ccc3c(c2)C(=O)c2cc(NC(=O)CN4CCN(C)CC4)ccc2C3=O)CC1 [Compound 11, 2,7-Bis[2-(N-methylpiperazino)acetamido]anthraquinone] | 47 ± 3%
CC(C)NCC(=O)Nc1ccc2c(c1)C(=O)c1cc(NC(=O)CNC(C)C)ccc1C2=O [Compound 13, 2,7-Bis[2-(isopropylamino)acetamido]anthraquinone] | 39 ± 1%
CN(C)CCC(=O)Nc1ccc2c(c1)C(=O)c1cc(NC(=O)CCN(C)C)ccc1C2=O [Compound 20, 2,7-Bis[3-(dimethylamino)propionamido]anthraquinone] | 22 ± 13%
CCNCCC(=O)Nc1ccc2c(c1)C(=O)c1cc(NC(=O)CCNCC)ccc1C2=O [Compound 22, 2,7-Bis[3-(ethylamino)propionamido]anthraquinone] | 42 ± 1%
CC(=O)Nc1ccc2c(c1)C(=O)c1cc(NC(C)=O)ccc1C2=O [Compound 26, 2,7-Bis(acetamido)anthraquinone] | 91 ± 2%

Tested on: not listed separately
Assay: MTT assay in H1299 cells
Format: cell-based
Details: human, H1299 cells (H1299/PhTERT-driven SEAP reporter system); H1299; compound concentration 1 μM; read-out: MTT (Inhibition μM ± SD)
How it was run: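 H1299 cells, 2×10^3 per well, treated with drug 48 h. MTT (5 mg/ml stock) added for 4 h at 37° C, then SDS/DMF lysis overnight; absorbance at 570 nm gives viability, used alongside SEAP reporter readout to correct for cell number.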

SMILES | viability at 24 h, 1 µM
CCNCC(=O)Nc1ccc2c(c1)C(=O)c1cc(NC(=O)CNCC)ccc1C2=O [Compound 10, 2,7-Bis[2-(ethylamino)acetamido]anthraquinone] | 52 ± 11%
CN1CCN(CC(=O)Nc2ccc3c(c2)C(=O)c2cc(NC(=O)CN4CCN(C)CC4)ccc2C3=O)CC1 [Compound 11, 2,7-Bis[2-(N-methylpiperazino)acetamido]anthraquinone] | 90 ± 14%
CC(C)NCC(=O)Nc1ccc2c(c1)C(=O)c1cc(NC(=O)CNC(C)C)ccc1C2=O [Compound 13, 2,7-Bis[2-(isopropylamino)acetamido]anthraquinone] | 78 ± 10%
CN(C)CCC(=O)Nc1ccc2c(c1)C(=O)c1cc(NC(=O)CCN(C)C)ccc1C2=O [Compound 20, 2,7-Bis[3-(dimethylamino)propionamido]anthraquinone] | 1 ± 104%
CCNCCC(=O)Nc1ccc2c(c1)C(=O)c1cc(NC(=O)CCNCC)ccc1C2=O [Compound 22, 2,7-Bis[3-(ethylamino)propionamido]anthraquinone] | 86 ± 10%
CC(=O)Nc1ccc2c(c1)C(=O)c1cc(NC(C)=O)ccc1C2=O [Compound 26, 2,7-Bis(acetamido)anthraquinone] | 117 ± 15%

Same assay, conditions: human, H1299 cells (H1299/PhTERT-driven SEAP reporter system); H1299; compound concentration 10 μM; read-out: MTT (Inhibition μM ± SD)

SMILES | viability at 24 h, 10 µM
CCNCC(=O)Nc1ccc2c(c1)C(=O)c1cc(NC(=O)CNCC)ccc1C2=O [Compound 10, 2,7-Bis[2-(ethylamino)acetamido]anthraquinone] | 24 ± 5%
CN1CCN(CC(=O)Nc2ccc3c(c2)C(=O)c2cc(NC(=O)CN4CCN(C)CC4)ccc2C3=O)CC1 [Compound 11, 2,7-Bis[2-(N-methylpiperazino)acetamido]anthraquinone] | 71 ± 4%
CC(C)NCC(=O)Nc1ccc2c(c1)C(=O)c1cc(NC(=O)CNC(C)C)ccc1C2=O [Compound 13, 2,7-Bis[2-(isopropylamino)acetamido]anthraquinone] | 26 ± 15%
CN(C)CCC(=O)Nc1ccc2c(c1)C(=O)c1cc(NC(=O)CCN(C)C)ccc1C2=O [Compound 20, 2,7-Bis[3-(dimethylamino)propionamido]anthraquinone] | 53 ± 13%
CCNCCC(=O)Nc1ccc2c(c1)C(=O)c1cc(NC(=O)CCNCC)ccc1C2=O [Compound 22, 2,7-Bis[3-(ethylamino)propionamido]anthraquinone] | 59 ± 3%
CC(=O)Nc1ccc2c(c1)C(=O)c1cc(NC(C)=O)ccc1C2=O [Compound 26, 2,7-Bis(acetamido)anthraquinone] | 83 ± 13%

Same assay, conditions: human, H1299 cells (H1299/PhTERT-driven SEAP reporter system); H1299; compound concentration 100 μM; read-out: MTT (Inhibition μM ± SD)

SMILES | viability at 24 h, 100 µM
CCNCC(=O)Nc1ccc2c(c1)C(=O)c1cc(NC(=O)CNCC)ccc1C2=O [Compound 10, 2,7-Bis[2-(ethylamino)acetamido]anthraquinone] | 3 ± 4%
CN1CCN(CC(=O)Nc2ccc3c(c2)C(=O)c2cc(NC(=O)CN4CCN(C)CC4)ccc2C3=O)CC1 [Compound 11, 2,7-Bis[2-(N-methylpiperazino)acetamido]anthraquinone] | 37 ± 6%
CC(C)NCC(=O)Nc1ccc2c(c1)C(=O)c1cc(NC(=O)CNC(C)C)ccc1C2=O [Compound 13, 2,7-Bis[2-(isopropylamino)acetamido]anthraquinone] | 6 ± 11%
CN(C)CCC(=O)Nc1ccc2c(c1)C(=O)c1cc(NC(=O)CCN(C)C)ccc1C2=O [Compound 20, 2,7-Bis[3-(dimethylamino)propionamido]anthraquinone] | 1 ± 1%
CCNCCC(=O)Nc1ccc2c(c1)C(=O)c1cc(NC(=O)CCNCC)ccc1C2=O [Compound 22, 2,7-Bis[3-(ethylamino)propionamido]anthraquinone] | 34 ± 7%
CC(=O)Nc1ccc2c(c1)C(=O)c1cc(NC(C)=O)ccc1C2=O [Compound 26, 2,7-Bis(acetamido)anthraquinone] | 55 ± 11%
